{
  "source": "patent US20210308196A1",
  "about": "“COMPOSITIONS AND METHODS TO PROMOTE HOST DEFENSE AND STIMULATE, EXPAND, AND/OR RESET T CELL REPERTOIRES” (EVOLVE BIOSYSTEMS, INC., priority 2018, published 2021)",
  "key": {"[1]": {"test_system": "IL-1β, IL-2, IL-5, IL-6, IL-8, IL-10, IL-22, IFNγ, TNFα", "assay": "Fecal cytokines, multiplexed immunoassay (MSD U-PLEX Inflammation Panel 1)", "assay_type": "in vivo, human", "details": "for IFNγ Median (SD) / IL-1β Median (SD) / IL-2 Median (SD) / IL-5 Median (SD) / IL-6 Median (SD) / IL-8 Median (SD) / IL-10 Median (SD) / IL-22 Median (SD) / TNFα Median (SD): infant feces", "procedure": "Multiplexed Immunoassays. Interleukin (IL)-1β, IL-2, IL-5, IL-6, IL-8, IL-10, IL-22, interferon (IFN) γ, and tumor necrosis factor (TNF) α were quantified from 80 mg of stool diluted 1:10 in Meso Scale Discovery (MSD; Rockville, Md.) diluent using the U-PLEX Inflammation Panel 1 (human) Kit according to the manufacturer's instructions. Standards and samples were measured in duplicate and blank values were subtracted from all readings. The plate was then read on a Sector Imager 2400 MSD Discovery Workbench analysis software. Statistical Analysis. Demographic differences between Control and EVC001-fed infants was analyzed using Fisher's Exact test for categorical data and Wilcoxon rank sum (Mann-Whitney U) test for continuous data. […] The relationship between fecal calprotectin concentration and % Bifidobacteriaceae was quantified using Spearman's Rho correlation, and the differences in calprotectin concentration between high (>25%) and low (<25%) Bifidobacteriaceae abundance was assessed using the Wilcoxon rank sum test. One subject with abnormally high fecal calprotectin concentration (greater than 3 standard deviations above the mean of both treatment and control data) was considered an extreme outlier and removed from the aforementioned calprotectin analyses. Wilcoxon rank sum tests were performed to assess relative abundance for each bacterial taxa and cytokine concentration differences. For radar plots, medians were adjusted to log scale, then normalized within each cytokine group from 0 to 1. Differences overtime within each cytokine group were evaluated using the Wilcoxon rank sum test. P-values were adjusted using the Bonferroni-Holms method and considered statistically significant if P<0.05. Statistical analyses were applied to determine the significance of global cytokine profile as determined by computing a Bray-Curtis distance metric translated into a principal coordinate analysis and visualized with EMPeror. Global cytokine profile differences by group status were then determined using a permutational multivariate analysis of variance (PERMANOVA), and significant P-values were determined using 999 Monte Carlo permutations. To assess the relationship between the global cytokine profile and the microbiome, we used a Procrustes analysis. The taxonomic operational taxonomic unit (OTU) table at the family level was computed using QIIME, and the cytokine table was used to generate a distance matrix for each, using a weighted UniFrac for 16S and Bray-Curtis for the cytokine. We performed a principal coordinate analysis separately on the two matrices and used a Procrustes analysis as implemented in QIIME to rotate, translate, and scale the matrices. The resulting transformed matrices were plotted using EMPeror. P-values for the Procrustes analysis were generated using Monte Carlo simulations (n=999). Raw correlation statistics were assigned the likelihood of these associations to be true positive associations by computing P-values via a Fisher's Z transform to normalize the distribution of the correlation scores."}, "[2]": {"test_system": "TLR2, TLR4, TNF and COX-2", "assay": "qPCR of inflammatory markers in sloughed off intestinal epithelial cells", "assay_type": "in vivo, human", "details": "treatment group", "text": "Expression of inflammatory markers including Toll like receptor (TLR) 2 and TLR4, COX-2 and TNF in intestinal epithelial cells: Previous data has implemented TLR2 in controlling mucosal inflammation by regulating intestinal epithelial barrier function. Further, a significant TLR4-dependent increase in Cox-2 expression has been shown in intestinal epithelial cells post exposure to lipopolysaccharide. TNF-α, a cytokine that plays a key role in mucosal inflammation, is readily detectable at the expression and protein levels in children who have various intestinal pathologies."}, "[3]": {"test_system": "peanut extract allergy", "assay": "Prevention of murine peanut allergy", "assay_type": "in vivo, mouse", "text": "Germ-free mouse pups are weaned 3-4 weeks after birth and put on a polysaccharide-free diet that is enriched for Vitamin A. As soon as the mouse pups are weaned, they are gavaged with a dysbiotic (no Bifidobacterium sp. and high proteobacteria) human infant microbiome at Day 1 of the experiment. The mice are divided into 4 groups: control, control plus LNnT, B. infantis, and B. infantis plus LNnT. Mice are given the composition for 21 days. All Groups receive B. infantis or placebo every 3 days by gavage. The LNnT or placebo is added to the drinking water for 21 days. Mice receive intragastric gavage of peanut extract on weekly at 5 mg/mouse for sensitization and then 25 mg/mouse at week 5 for challenge with 10 μg of Cholera toxin to elicit anaphylaxis. Control animals receive intragastric gavage with vehicle only. Anaphylaxis symptoms are evaluated, and then mice are necropsied. Plasma samples are collected for evaluation of histamine and IgE concentrations. White blood cells are isolated for PBMC characterization and evaluation of regulatory T cell population expansion using flow cytometry specific for CD4, CD25, Foxp3, Helios, Neuropilin, CD8, CD44, CD62L, IFNgamma, IL-17, and B cell populations, including Bregs and plasma cells using the following markers: IgM, CD5, CD24, CD19, CD19, CD20, CD34, CD38, CD45R, CD78, CD80, and CD138."}, "[4]": {"details": "Day 40 compared to Day 6, within EVC001-fed infants"}, "[5]": {"details": "Day 60 compared to Day 6, within EVC001-fed infants"}, "[6]": {"details": "Day 6 (Baseline), before supplementation starts on Day 7"}},
  "data": [
    {"substance": "Bifidobacterium longum subsp. infantis EVC001 [B. infantis EVC001]", "values": [
      {"measurement": "Fecal IFNγ level change over time", "setting": "[1]; [4]", "value": "significantly increased"},
      {"measurement": "Fecal IL-2 level change over time", "setting": "[1]; [4]", "value": "significantly lower"},
      {"measurement": "Fecal IL-5 level change over time", "setting": "[1]; [4]", "value": "significantly lower"},
      {"measurement": "Fecal IL-6 level change over time", "setting": "[1]; [4]", "value": "significantly lower"},
      {"measurement": "Fecal IL-10 level change over time", "setting": "[1]; [4]", "value": "significantly lower"},
      {"measurement": "Fecal IL-22 level change over time", "setting": "[1]; [4]", "value": "significantly lower"},
      {"measurement": "Fecal TNFα level change over time", "setting": "[1]; [4]", "value": "significantly lower"},
      {"measurement": "Fecal IFNγ level change over time", "setting": "[1]; [5]", "value": "significantly higher"},
      {"measurement": "Fecal IL-2 level change over time", "setting": "[1]; [5]", "value": "significantly lower"},
      {"measurement": "Fecal IL-5 level change over time", "setting": "[1]; [5]", "value": "significantly lower"},
      {"measurement": "Fecal IL-6 level change over time", "setting": "[1]; [5]", "value": "significantly lower"},
      {"measurement": "Fecal IL-10 level change over time", "setting": "[1]; [5]", "value": "significantly lower"},
      {"measurement": "Fecal TNFα level change over time", "setting": "[1]; [5]", "value": "significantly lower"},
      {"measurement": "Fecal IL-22 level change over time", "setting": "[1]; Day 60 compared to Day 40, within EVC001-fed infants", "value": "significantly higher"},
      {"measurement": "Fecal cytokine levels overall", "setting": "[1]; first 60 days postnatal, versus Control infants", "value": "significantly lower"},
      {"measurement": "IFNγ Median (SD)", "setting": "[1]; [6]", "value": 0.29, "unit": "pg/mg"},
      {"measurement": "IL-1β Median (SD)", "setting": "[1]; [6]", "value": 38.65, "unit": "pg/mg"},
      {"measurement": "IL-2 Median (SD)", "setting": "[1]; [6]", "value": 48.13, "unit": "pg/mg"},
      {"measurement": "IL-5 Median (SD)", "setting": "[1]; [6]", "value": 16.53, "unit": "pg/mg"},
      {"measurement": "IL-6 Median (SD)", "setting": "[1]; [6]", "value": 9.29, "unit": "pg/mg"},
      {"measurement": "IL-8 Median (SD)", "setting": "[1]; [6]", "value": 48.35, "unit": "pg/mg"},
      {"measurement": "IL-10 Median (SD)", "setting": "[1]; [6]", "value": 8.76, "unit": "pg/mg"},
      {"measurement": "IL-22 Median (SD)", "setting": "[1]; [6]", "value": 4.22, "unit": "pg/mg"},
      {"measurement": "TNFα Median (SD)", "setting": "[1]; [6]", "value": 26.71, "unit": "pg/mg"},
      {"measurement": "IL-2 Median (SD)", "setting": "[1]; Day 40", "value": 3.36, "unit": "pg/mg"},
      {"measurement": "IL-5 Median (SD)", "setting": "[1]; Day 40", "value": 1.48, "unit": "pg/mg"},
      {"measurement": "IL-6 Median (SD)", "setting": "[1]; Day 40", "value": 0.48, "unit": "pg/mg"},
      {"measurement": "IL-10 Median (SD)", "setting": "[1]; Day 40", "value": 0.55, "unit": "pg/mg"},
      {"measurement": "TNFα Median (SD)", "setting": "[1]; Day 40", "value": 2.7, "unit": "pg/mg"},
      {"measurement": "IFNγ Median (SD)", "setting": "[1]; Day 60", "value": 26.74, "unit": "pg/mg"},
      {"measurement": "IL-1β Median (SD)", "setting": "[1]; Day 60", "value": 13.22, "unit": "pg/mg"},
      {"measurement": "IL-2 Median (SD)", "setting": "[1]; Day 60", "value": 3.16, "unit": "pg/mg"},
      {"measurement": "IL-5 Median (SD)", "setting": "[1]; Day 60", "value": 1.85, "unit": "pg/mg"},
      {"measurement": "IL-6 Median (SD)", "setting": "[1]; Day 60", "value": 0.71, "unit": "pg/mg"},
      {"measurement": "IL-8 Median (SD)", "setting": "[1]; Day 60", "value": 70.13, "unit": "pg/mg"},
      {"measurement": "IL-10 Median (SD)", "setting": "[1]; Day 60", "value": 0.46, "unit": "pg/mg"},
      {"measurement": "IL-22 Median (SD)", "setting": "[1]; Day 60", "value": 3.54, "unit": "pg/mg"},
      {"measurement": "TNFα Median (SD)", "setting": "[1]; Day 60", "value": 3.97, "unit": "pg/mg"},
      {"measurement": "Expression of TLR2, TLR4, TNF and COX-2", "setting": "[2]", "value": "significantly reduced"},
      {"measurement": "Inflammatory responses to the food antigen", "setting": "[3]; compared to control mice", "value": "reduce"},
      {"measurement": "Anaphylaxis", "setting": "[3]; peanut extract challenge with Cholera toxin", "value": "prevent"}
    ]}
  ]
}
